Test results published in paper PMC5354456, “Selective inhibition of RNA polymerase I transcription as a potential approach to treat African trypanosomiasis” (PLoS Neglected Tropical Diseases, 2017).
“Also recorded” adds a separate entry of the source.

Key:
[1] = tested on: MCF10A human breast epithelial cell line; test: Alamar Blue cytotoxicity assay, MCF10A cells; format: cell-based; conditions: for IC50: 72 hour Alamar Blue, mean ± SD; for T. brucei more sensitive than MCF10A: Alamar Blue IC50s compared; for selectivity index for T. brucei vs MCF10A (Alamar blue): IC50 MCF10A Alamar blue / IC50 T. brucei
Method: (§1) For the mammalian cell toxicity assays, either the spontaneously immortalised Michigan Cancer foundation (MCF10A) human breast epithelial cell line was used, or the BJ3 cell line, which is a human foreskin fibroblast cell line immortalized with the h-Tert catalytic subunit of telomerase. Cells were seeded in 96-well plates, and after 48 hours each well was treated in quintuplicate using ten different concentrations of CX-5461, quarfloxin, BMH-21 or suramin. After incubation for 48 hours, the cells were imaged and cell confluence was calculated using an IncuCyte ZOOM (Essen Biosciences). Cell confluence was normalised to a drug vehicle only control which was set to 100%. An Alamar Blue assay was also performed on the MCF10A cell line in the presence of the different Pol I transcription inhibitors. Here the Alamar Blue readout was also normalised to the vehicle only control. Experiments were performed as three biological replicates with the exception of the Incucyte data for MCF10A in the presence of BMH-21 and doxycycline which were obtained in duplicate. The dose response curves and IC50s were calculated using GraphPad Prism.

[2] = tested on: bloodstream form Trypanosoma brucei; test: Alamar Blue in vitro cytotoxicity assay, T. brucei SM; format: cell-based; conditions: for IC50: 72 hour Alamar Blue, mean ± SD, three biological replicates; for T. brucei more sensitive than human cells (selectivity range): compared with MCF10A and BJ3 human cell lines
Method: (§2) For proliferation assays, T. brucei SM was treated with inhibitors, and densities were determined using a Neubauer haemocytometer. Growth curves were repeated minimally in triplicate. For wash-out assays, T. brucei SM was treated with various concentrations of inhibitors. After two hours the cells were washed, resuspended in drug free HMI-9 medium, and cell proliferation was monitored using a haemocytometer. For the Alamar Blue in vitro cytotoxicity assay, 200 μl samples of T. brucei SM cells (2 x 10^3 cells ml^-1) were plated in 96 well plates, and incubated for 72 hours with two fold serial dilutions of the inhibitors. At 72 hours, 20 μl of Resazurin (0.125 mg ml^-1) (Sigma) was added, and the parasites were incubated for a further 18 hours. Fluorescence was measured using a Tecan infinite plate reader (excitation at 530 nm, emission at 585 nm). The change in fluorescence (minus the chemical only control) was plotted as a function of the concentration of chemical compound using the sigmoidal dose-response (variable slope) algorithm using GraphPad Prism version 5.

[3] = tested on: MCF10A human breast epithelial cell line; test: IncuCyte cell confluence proliferation assay, MCF10A cells; format: cell-based; conditions: for IC50: 48 hour IncuCyte, mean ± SD; for selectivity index for T. brucei vs MCF10A (Incucyte): IC50 MCF10A Incucyte / IC50 T. brucei
Method: as §1

[4] = tested on: T. brucei RPA2 Pol I subunit; test: Western blot of YFP-RPA2 Pol I subunit; format: cell-based, Trypanosoma brucei; conditions: 3 μM, one hour, T. brucei TY-YFP-RPA2
Method: (A) The T. brucei TY-YFP-RPA2 cell line was incubated with various concentrations of BMH-21 for the time indicated in hours. As a control, T. brucei was also incubated with 800 nM of suramin. Lysate from 1 x 10^7 cell equivalents was blotted and probed with anti-TY (BB2) antibody. A band corresponding to T. brucei RPA2 is shown, as well as a Ponceau S stain of the blot to serve as a loading control. Size markers in kiloDaltons (kDa) are indicated. (TIF) Click here for additional data file.

[5] = tested on: BJ3 human foreskin fibroblast cell line; test: IncuCyte cell confluence assay, BJ3 fibroblasts; format: cell-based; conditions: for IC50: 48 hours IncuCyte, IC50 for cell death, mean ± SD; for selectivity index for T. brucei vs BJ3 human fibroblasts (Incucyte): IC50 BJ3 cell death / IC50 T. brucei
Method: as §1
In parallel, the BJ3 human foreskin fibroblast cell line that had been immortalised with hTert (the catalytic subunit of telomerase) was also tested for sensitivity to these compounds [46] (S2 Fig)(S3 Fig). The IC50 values corresponding to either growth arrest or cell death shown in S2 Fig were obtained by observing the cell images (S3 Fig) and determining the point where the specific dose curve plateaus at the higher concentrations. If the cells were morphologically sound, then the dose curve represented growth arrest of the cells. If the cells were dead, then the dose curve represented cell death. The IC50 values for cell death were used to calculate the selectivity index scores.

[6] = tested on: T. brucei SM; test: Proliferation assay (growth curves, haemocytometer); format: cell-based, Trypanosoma brucei; conditions: growth over 48 hours
Method: as §2

[7] = tested on: Expression Site Body (ESB) and nucleolus of T. brucei; test: Immunofluorescence microscopy of ESB, VEX1 foci and nucleolus; format: cell-based, Trypanosoma brucei; conditions: for cells with an ESB / ESB positive cells: one hour, G1 cells, untreated 64 ± 17%
Method: Trypanosomes were fixed in 2% paraformaldehyde, permeabilised with 0.1% NP-40 for 5 minutes at room temperature before incubation for one hour with an antibody against the nucleolar marker L1C6 [47] or anti-myc tag antibody (clone 4A6, EMD Millipore). Slides were subsequently incubated with a goat anti-mouse secondary antibody coupled to Alexa-594 (Molecular Probes), before mounting in Vectashield containing DAPI (Vector Laboratories). Microscopy was performed using a Zeiss Imager.M1 microscope equipped with a Zeiss AxioCam MRm camera and Axio Vision Rel 4.8 software. A Z-stack of images was taken at 200 nm intervals, and the images from the individual channels were processed using Image J software. For quantitation of ESB signal using YFP, VEX1 signal using the anti-myc tag antibody or nucleolar signal using the L1C6 antibody, the exposure time and contrast was uniformly adjusted across all conditions. Quantification of ESB and nucleolar signal was carried out using compressed stacks of all appropriate channels in which the images acquired on the Z-axis were analysed. The ESB and nucleolar status was recorded for a total of approximately 100 cells in G1 (two biological replicates of approximately 50 cells) for each condition.

[8] = tested on: T. brucei SM; test: Wash-out assay; format: cell-based, Trypanosoma brucei; conditions: two hours incubation, then wash-out
Method: as §2

[9] = tested on: Pol I transcription (rDNA and VSG221 ES precursor transcripts); test: RNA precursor transcript analysis by qRT-PCR; format: cell-based, Trypanosoma brucei
Method: RNA transcript analysis was performed using quantitative reverse transcription PCR (qRT-PCR). Total RNA was isolated using the RNeasy kit (Qiagen) and DNase treated with TURBO DNA-free kit (Invitrogen). Reverse transcription was performed using 100 ng RNA as a template for cDNA synthesis using random hexamer primers (Promega) and the Omniscript RT kit (Qiagen). qPCR was performed on the 7500 Fast Real-Time PCR system (Life Technologies) using Brilliant II SYBR Green QPCR Low ROX Master Mix (Agilent Technologies). DNase treated RNA without reverse transcriptase was used as a control. The amplification conditions for each primer pair were optimised, and the primer sequences are listed in S1 Table. Transcript levels were normalised against actin mRNA, and plotted as relative change relative to the zero hour time point.

[10] = tested on: T. b. rhodesiense; design: method as in PMID 20149544; conditions: similar Alamar Blue assay; read-out: IC50 suramin for T. b. rhodesiense; cited from earlier work

Structure (SMILES)	T. brucei more sensitive than MCF10A [1] [fold]	selectivity index for T. brucei vs MCF10A (Alamar blue) [1]	T. brucei more sensitive than human cells (selectivity range) [2]	selectivity index for T. brucei vs MCF10A (Incucyte) [3]	selectivity index for T. brucei vs BJ3 human fibroblasts (Incucyte) [5]	drug concentration that resulted in suppression of proliferative growth in T. brucei [6] [nM]	nucleolar structure (L1C6 marker) ([7]; 3 μM)	cells with an ESB ([7]; 3 μM)	VEX1 signal (ESB marker) ([7]; 3 μM, three hours)	reversibility of inhibition of T. brucei proliferation [8]	IC50 ([1]; Homo sapiens, MCF-10A) [µM]	IC50 ([2]; Trypanosoma brucei) [µM]	IC50 ([3]; Homo sapiens, MCF-10A) [µM]	IC50 ([5]; Homo sapiens, Fibroblast) [µM]	also measured
CN(C)CCNC(=O)c1cccn2c(=O)c3cc4ccccc4cc3nc12 [BMH-21]	3.4	(3.4x)	3-10 fold	(4.6x)	(10x)	300	nucleoli fragmenting into multiple foci	1 ± 1.4%	drastically reduced	–	–	–	–	–	IC50 [1]: 0.46 ± 0.08 µM; IC50 [2]: 0.134 ± 0.008 µM; IC50 [3]: 0.622 ± 0.34 µM; degradation of the RPA2 Pol I subunit [4]: we did not see evidence for degradation of the RPA2 Pol I subunit; IC50 [5]: 1.36 ± 0.22 µM
Cc1cnc(CNC(=O)c2c(=O)c3ccc(N4CCCN(C)CC4)nc3n3c2sc2ccccc23)cn1 [CX-5461]	25	(25x)	25-35 fold	(28x)	(35x)	1000	nucleoli fragmenting into multiple foci	4.5 ± 0.7%	drastically reduced	irreversibly	6.89 ± 4.83	0.279 ± 0.016	7.84 ± 9.8	9.78 ± 0.79	repression of Pol I transcription ([9]; 1 μM, 15 minutes): specific knockdown of Pol I transcripts
C[C@H]1c2cccc(O)c2C(=O)C2=C(O)[C@]3(O)C(=O)C(C(N)=O)=C(O)[C@@H](N(C)C)[C@@H]3[C@@H](O)[C@@H]21 [Doxycycline, doxycycline]	–	–	–	–	–	–	–	–	–	–	50.7 ± 33.8	–	–	–	–
CN1CCC[C@H]1CCNC(=O)c1cn2c3c(c(N4CCC(c5cnccn5)C4)c(F)cc3c1=O)Oc1cc3ccccc3cc1-2 (some centres unmarked) [Quarfloxin, quarfloxin]	29	(29x)	18-40 fold	(40x)	(18x)	300	nucleoli fragmenting into multiple foci	No cells contained an ESB; also recorded: none of the cells had an ESB	drastically reduced	irreversibly	4.44 ± 3.29	0.155 ± 0.009	6.24 ± 3.87	2.72 ± 0.17	VSG221 precursor transcript reduced by ([9]; 1 μM, 15 minutes): 94.5 ± 1.9%; VSG pseudogene transcript reduced by ([9]; 1 μM, 15 minutes): 92.3 ± 1.6%; pre-rRNA Precursor 1 transcript levels reduced by (primer a) ([9]; 1 μM, 15 minutes): 98.5 ± 0.66%; rRNA Precursor 2 decreased by (primer b) ([9]; 1 μM, 15 minutes): 91.3 ± 2.6%; rRNA Precursors 2 and 3 reduced by (primer pair c) ([9]; 1 μM, 15 minutes): 83.4 ± 2.1%; rRNA Precursors 2 and 3 reduced by (primer pair d) ([9]; 1 μM, 15 minutes): 89.5 ± 2.7%; Pol II derived tubulin precursor transcript level ([9]; 1 μM, fifteen minutes): 129 ± 10.3 % normal; ESB positive cells ([7]; 300 nM): 30.5 ± 5%; ESB positive cells ([7]; 1 μM): 7.5 ± 0.7%
Cc1ccc(C(=O)Nc2ccc(S(=O)(=O)O)c3cc(S(=O)(=O)O)cc(S(=O)(=O)O)c23)cc1NC(=O)c1cccc(NC(=O)Nc2cccc(C(=O)Nc3cc(C(=O)Nc4ccc(S(=O)(=O)O)c5cc(S(=O)(=O)O)cc(S(=O)(=O)O)c45)ccc3C)c2)c1 [Suramin, suramin]	–	–	–	–	–	–	–	–	–	–	1640 ± 317	0.063 ± 0.005	1260 ± 90	890 ± 127	effect on Pol I and Pol II derived precursor transcript levels ([9]; 800 nM, 15 minutes): did not lead to reduced levels of any of these transcripts; nucleolar structure (L1C6 marker) ([7]; 800 nM): did not lead to significant changes in structure of the nucleoli; effect on ESB positive cells ([7]; 800 nM, one to three hours): only a marginal reduction in ESB positive cells; ESB as visualised using epitope tagged VEX1 ([7]; 800 nM, three hours): no specific disintegration of the ESB was observed; IC50 [10]: 0.053 µM
